Tests used:
[1] = test system: A427 human NSCLC xenografts; conditions: single treatment, 14 days post injection, equivalent cisplatin levels
[2] = mouse KB tumor model
KB tumors = type: in vivo; conditions: KB tumored nude mice, dosed at 8 mg/kg cisplatin

## N.N.[Cl][Pt][Cl] [Cisplatin, (SP-4-2)-diamminedichloridoplatinum (II)]
[1]
  tumor growth inhibition: 30%
[2]
  maximum tolerated dose (MTD): less than 10 mg/kg
KB tumors
  peak tumor DNA/Pt adduct: less than 10 pg of Pt/μg of DNA
